These are literature values, as cited in US20250231185A1, “Coronavirus T Cell Epitopes, Megapools and Uses Thereof” (La Jolla Institute for Immunology, priority 2021, published 2025).

The test system of the first data set is CD8+ T cells. To be noted: CD8R (D) megapool epitopes; dominant = recognized by 3 or more donors/different studies; cited from earlier work.
Consider 1771 (QLMCQPILLL) [compound 1771], for which the Dominant result is reported as “Yes (more dominant epitopes are defined by being recognized by 3 or more donors/different studies)”. 1734 (VVYRGTTTYK) [compound 1734]: the Dominant result is “Yes (more dominant epitopes are defined by being recognized by 3 or more donors/different studies)”. As for 1670 (FLFLTWICL) [compound 1670], the Dominant result is on record as “Yes (more dominant epitopes are defined by being recognized by 3 or more donors/different studies)”. Turning to 1691 (ATEGALNTPK) [compound 1691], the Dominant result is “Yes (more dominant epitopes are defined by being recognized by 3 or more donors/different studies)”. As for 1752 (LLLDDFVEII) [compound 1752], the Dominant result is reported as “Yes (more dominant epitopes are defined by being recognized by 3 or more donors/different studies)”. As for 1720 (RQLLFVVEV) [compound 1720], the Dominant result was “Yes (more dominant epitopes are defined by being recognized by 3 or more donors/different studies)”.

Consider 1775 (SLRPDTRYVL) [compound 1775], for which the Dominant entry is reported as “Yes (more dominant epitopes are defined by being recognized by 3 or more donors/different studies)”. Take 1696 (LLLDRLNQL) [compound 1696]: the Dominant result is reported as “Yes (more dominant epitopes are defined by being recognized by 3 or more donors/different studies)”.

1782 (VLAWLYAAV) [compound 1782]: the Dominant result is “Yes (more dominant epitopes are defined by being recognized by 3 or more donors/different studies)”. On to 1777 (TSEDMLNPNY) [compound 1777], for which the Dominant result is given as “Yes (more dominant epitopes are defined by being recognized by 3 or more donors/different studies)”. In the case of 1805 (YLYALVYFL) [compound 1805], the Dominant entry is given as “Yes (more dominant epitopes are defined by being recognized by 3 or more donors/different studies)”.

On to 1778 (TPKYKFVRI) [compound 1778], for which the Dominant entry was “Yes (more dominant epitopes are defined by being recognized by 3 or more donors/different studies)”.

For the substance 1818 (LEYHDVRVVL) [compound 1818], the Dominant entry is “Yes (more dominant epitopes are defined by being recognized by 3 or more donors/different studies)”. In the case of 1799 (VTDTPKGPK) [compound 1799], the Dominant result was “Yes (more dominant epitopes are defined by being recognized by 3 or more donors/different studies)”. Regarding 1808 (FTSDYYQLY) [compound 1808], the Dominant entry is “Yes (more dominant epitopes are defined by being recognized by 3 or more donors/different studies)”. For the substance 1669 (KLLEQWNLV) [compound 1669], the Dominant entry is reported as “Yes (more dominant epitopes are defined by being recognized by 3 or more donors/different studies)”. As to 1674 (RLFARTRSMW) [compound 1674], the Dominant entry is on record as “Yes (more dominant epitopes are defined by being recognized by 3 or more donors/different studies)”.

Staying with this data set, now noted: CD8RE megapool peptides (non-spike SARS-CoV-2 antigens); dominant epitope Yes/No; cited from earlier work.
On to 2903 (GTITVEELK) [compound 2903], for which the Dominant result is “Yes (more dominant epitopes are defined by being recognized by 3 or more donors/different studies)”. Regarding 3033 (YTELEPPCRF) [compound 3033], the Dominant entry is recorded as “Yes (more dominant epitopes are defined by being recognized by 3 or more donors/different studies)”. Turning to 2986 (KVDGVDVEL) [compound 2986], the Dominant entry is listed as “Yes (more dominant epitopes are defined by being recognized by 3 or more donors/different studies)”. For 3037 (IPIQASLPF) [compound 3037], the Dominant result is listed as “Yes (more dominant epitopes are defined by being recognized by 3 or more donors/different studies)”. As to 3046 (QLRARSVSPK) [compound 3046], the Dominant result was “Yes (more dominant epitopes are defined by being recognized by 3 or more donors/different studies)”. Regarding 2965 (LVLSVNPYV) [compound 2965], the Dominant result was “Yes (more dominant epitopes are defined by being recognized by 3 or more donors/different studies)”. As to 2969 (VVYRGTTTYK) [compound 2969], the Dominant entry is “Yes (more dominant epitopes are defined by being recognized by 3 or more donors/different studies)”. Consider 2994 (KLVNKFLAL) [compound 2994], for which the Dominant entry was “Yes (more dominant epitopes are defined by being recognized by 3 or more donors/different studies)”.

For 2973 (VYIGDPAQL) [compound 2973], the Dominant result is reported as “Yes (more dominant epitopes are defined by being recognized by 3 or more donors/different studies)”. For 2907 (TLACFVLAAV) [compound 2907], the Dominant entry was “Yes (more dominant epitopes are defined by being recognized by 3 or more donors/different studies)”. Consider 2996 (FGDDTVIEV) [compound 2996], for which the Dominant entry was “Yes (more dominant epitopes are defined by being recognized by 3 or more donors/different studies)”. As for 3035 (MDLFMRIFTI) [compound 3035], the Dominant result is given as “Yes (more dominant epitopes are defined by being recognized by 3 or more donors/different studies)”. In the case of 2915 (RYRIGNYKL) [compound 2915], the Dominant entry is reported as “Yes (more dominant epitopes are defined by being recognized by 3 or more donors/different studies)”.

For the substance 3036 (FVRATATIPI) [compound 3036], the Dominant entry was “Yes (more dominant epitopes are defined by being recognized by 3 or more donors/different studies)”. Turning to 3013 (TPKYKFVRI) [compound 3013], the Dominant result is “Yes (more dominant epitopes are defined by being recognized by 3 or more donors/different studies)”.

In the case of 2958 (MVMCGGSLYV) [compound 2958], the Dominant result was “Yes (more dominant epitopes are defined by being recognized by 3 or more donors/different studies)”. Turning to 3005 (YIFFASFYY) [compound 3005], the Dominant result is “Yes (more dominant epitopes are defined by being recognized by 3 or more donors/different studies)”. For the substance 2974 (IVDTVSALV) [compound 2974], the Dominant result was “Yes (more dominant epitopes are defined by being recognized by 3 or more donors/different studies)”. On to 2948 (DLKGKYVQI) [compound 2948], for which the Dominant entry is reported as “Yes (more dominant epitopes are defined by being recognized by 3 or more donors/different studies)”.

The same data set, now with this note: Rha et al.; 37 of 112 and 2 of 40 patients; cited from earlier work.
For FIAGLIAIV [SEQ ID NO: 1520], the “responses detected in patients” value is recorded as 5%.

The same data set, now with this note: SARS-CoV-2-derived CD8 epitopes; dominant = recognized by 3 or more donors/different studies; cited from earlier work.
Regarding 678 (SAPPAQYEL) [compound 678], the Dominant result is “Yes (more dominant epitopes are defined by being recognized by 3 or more donors/different studies)”. Take 629 (TDNYITTY) [compound 629]: the Dominant result was “Yes (more dominant epitopes are defined by being recognized by 3 or more donors/different studies)”.

The data set is the same for the next values; noted with them: SARS-CoV-2 Ag S; T cell type recognizing the epitope; cited from earlier work.
1380 (TLADAGFIK) [compound 1380]: the Restriction result was “CD8”. Turning to 1397 (YENQKLIANQF) [compound 1397], the Restriction result is on record as “CD8”. Consider 1341 (STGSNVFQTR) [compound 1341], for which the Restriction entry is listed as “CD8”. Take 1413 (LITGRLQSL) [compound 1413]: the Restriction result is “CD8”.

Take 1354 (LGAENSVAY) [compound 1354]: the Restriction result is reported as “CD8”.

As to 1310 (FERDISTEIY) [compound 1310], the Restriction result is “CD8”. As to 1348 (SPRRARSV) [compound 1348], the Restriction result is recorded as “CD8”. 1338 (RVYSTGSNV) [compound 1338]: the Restriction result is on record as “CD8”. As for 1334 (YQDVNCTEV) [compound 1334], the Restriction result is listed as “CD8”.

Staying with this data set, now noted: T cell subset (CD4 or CD8) recognizing the SARS-CoV-2-derived epitope; cited from earlier work.
On to 631 (KQEILGTVSW) [compound 631], for which the Restriction entry was “CD8”. For 620 (EVKPFITESK) [compound 620], the Restriction entry is on record as “CD8”. On to 593 (YLFDESGEF) [compound 593], for which the Restriction result is “CD8”. 678 (SAPPAQYEL) [compound 678]: the Restriction entry is “CD8”. On to 623 (LVSDIDITF) [compound 623], for which the Restriction result was “CD8”. As for 508 (IIWVATEGA) [compound 508], the Restriction result was “CD8”. For 603 (TIEVNSFSGY) [compound 603], the Restriction entry is listed as “CD8”. For the substance 591 (VELGTEVNEF) [compound 591], the Restriction entry was “CD8”. Regarding 535 (FAPSASAFF) [compound 535], the Restriction entry is on record as “CD8”.

For the substance 505 (AGLPYGANK) [compound 505], the Restriction result is given as “CD8”. Regarding 648 (GEVITFDNL) [compound 648], the Restriction entry is “CD8”. As for 582 (GETLPTEVL) [compound 582], the Restriction result is recorded as “CD8”. 639 (SLINTLNDL) [compound 639]: the Restriction result was “CD8”. For the substance 609 (VVVNAANVY) [compound 609], the Restriction result was “CD8”. In the case of 606 (YLKLTDNVY) [compound 606], the Restriction result was “CD8”. 624 (APYIVGDVV) [compound 624]: the Restriction entry is on record as “CD8”.

For the substance 562 (VPHVGEIPV) [compound 562], the Restriction entry is recorded as “CD8”. For the substance 629 (TDNYITTY) [compound 629], the Restriction entry was “CD8”.

The same data set, now with this note: T cell type (CD4 or CD8) recognizing the SARS-CoV-2 epitope; cited from earlier work.
As for 994 (FVNEFYAYL) [compound 994], the Restriction result is “CD8”. As for 923 (VVYRAFDIY) [compound 923], the Restriction entry is recorded as “CD8”. Turning to 979 (ATVVIGTSK) [compound 979], the Restriction entry is listed as “CD8”. With 981 (VENPHLMGWD) [compound 981], the Restriction entry is recorded as “CD8”. In the case of 950 (KIFVDGVPFV) [compound 950], the Restriction entry is listed as “CD8”.

For 967 (KSAGFPFNKW) [compound 967], the Restriction result was “CD8”. Turning to 1001 (LVKQGDDYVY) [compound 1001], the Restriction entry is reported as “CD8”. For the substance 937 (DAMRNAGIV) [compound 937], the Restriction entry is recorded as “CD8”. For 1066 (AGFSLWVYK) [compound 1066], the Restriction result is given as “CD8”. For 1092 (CATVHTANKW) [compound 1092], the Restriction result is reported as “CD8”. 991 (VRNLQHRLY) [compound 991]: the Restriction entry is reported as “CD8”.
